The source made the active and inactive calls.
Experiments:
[1] = target: T1, Sphingosine 1-phosphate receptor 1 (Homo sapiens, UniProt P21453); assay type: functional
[2] = target: T2, Kappa-type opioid receptor (Homo sapiens, UniProt P41145); assay type: functional
[3] = system: A-375; experiment: MITF: Counter assay: A375 proliferation Measured in Cell-Based System Using Plate Reader - 2084-03_Inhibitor_Dose_DryPowder_Activity. [Related pubchem assays (depositor defined):AID488944]; assay type: functional; settings: Homo sapiens
[4] = HepG2 cell cytotoxicity, dose response, cytotoxicity control, plate reader, cherry-pick, antagonist series (AID 743416); assay type: functional, cell-based
[5] = system: A-375; experiment: A375 melanoma cell viability reduction, dose response, counter-screen for MITF modulator project, cherry-pick samples, set 2 (AID 540335); assay type: functional, cell-based; settings: Homo sapiens
[6] = target: T3, Microphthalmia-associated transcription factor (Homo sapiens, UniProt O75030); experiment: TRPM1 promoter luciferase signal decrease, dose response, MITF inhibitor project, cell-based, SK-MEL-5, cherry-picked, set 3 (AID 493073); assay type: functional
T3 sequence (O75030 whole entry): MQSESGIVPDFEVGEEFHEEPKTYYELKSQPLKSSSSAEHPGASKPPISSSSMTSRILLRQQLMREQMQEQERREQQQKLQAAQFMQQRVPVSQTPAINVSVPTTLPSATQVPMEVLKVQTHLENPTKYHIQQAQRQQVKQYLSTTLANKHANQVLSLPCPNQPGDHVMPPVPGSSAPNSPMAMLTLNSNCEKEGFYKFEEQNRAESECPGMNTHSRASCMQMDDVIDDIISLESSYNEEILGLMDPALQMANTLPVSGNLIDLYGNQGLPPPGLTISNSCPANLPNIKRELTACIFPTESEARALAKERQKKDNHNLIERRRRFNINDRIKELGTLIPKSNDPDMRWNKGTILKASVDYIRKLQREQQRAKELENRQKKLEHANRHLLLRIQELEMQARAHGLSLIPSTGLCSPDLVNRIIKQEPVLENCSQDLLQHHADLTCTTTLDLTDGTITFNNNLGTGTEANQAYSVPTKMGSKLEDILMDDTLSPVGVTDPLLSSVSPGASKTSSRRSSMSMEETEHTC

[7] = target: T4, Sphingosine 1-phosphate receptor 4 (Homo sapiens, UniProt O95977); experiment: Fluorescence dose response cell-based high throughput screening assay for antagonists of the Sphingosine 1-Phosphate Receptor 4 (S1P4). [Related pubchem assays: 1524 (Confirmation in triplicates.), 1510 (Primary screen.)]; assay type: functional
T4 sequence (O95977 whole entry): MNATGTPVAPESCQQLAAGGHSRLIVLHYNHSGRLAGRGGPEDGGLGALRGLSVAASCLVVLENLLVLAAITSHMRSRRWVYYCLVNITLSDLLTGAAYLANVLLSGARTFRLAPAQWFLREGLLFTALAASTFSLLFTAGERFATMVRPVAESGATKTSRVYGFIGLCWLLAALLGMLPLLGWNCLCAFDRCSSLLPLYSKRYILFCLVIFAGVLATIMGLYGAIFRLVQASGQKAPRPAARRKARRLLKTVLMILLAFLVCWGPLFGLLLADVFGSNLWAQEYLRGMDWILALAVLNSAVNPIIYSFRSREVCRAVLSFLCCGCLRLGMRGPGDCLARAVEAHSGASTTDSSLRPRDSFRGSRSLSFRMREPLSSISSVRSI

[8] = inhibitors of SNCA 5'UTR-driven reporter translation, confirmation, H4 neuroglioma cells, luminescence (AID 1988); assay type: functional, cell-based
[9] = target: T5, Delta-type opioid receptor (Homo sapiens, UniProt P41143); experiment: HTS Image-Based Screen for Antagonists of the DOR Receptor. [Related pubchem assays (depositor defined):AID1777, AID1785, AID1786, AID2133]; assay type: functional
T5 sequence (P41143 whole entry): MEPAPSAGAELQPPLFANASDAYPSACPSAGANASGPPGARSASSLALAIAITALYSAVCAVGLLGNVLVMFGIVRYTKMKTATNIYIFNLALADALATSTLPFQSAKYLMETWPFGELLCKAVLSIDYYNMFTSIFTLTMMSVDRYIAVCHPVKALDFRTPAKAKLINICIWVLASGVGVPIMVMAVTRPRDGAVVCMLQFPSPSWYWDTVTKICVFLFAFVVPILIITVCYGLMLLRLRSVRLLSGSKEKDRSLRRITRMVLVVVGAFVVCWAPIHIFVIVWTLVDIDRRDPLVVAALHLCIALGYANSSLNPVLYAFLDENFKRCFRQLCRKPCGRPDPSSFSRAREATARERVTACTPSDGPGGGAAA

[10] = target: T2, Kappa-type opioid receptor; assay type: functional; remark: listed apart in the source
[11] = Luminescence Cell-Based Dose Response HTS to Identify Inhibitors of 5'UTR Stem-Loop Driven Prion Protein mRNA Translation in H4 Neuroglioblastoma Cells. [Related pubchem assays: 1827 (Project Summary), 1813 (Primary HTS)]; assay type: functional
[12] = inhibitors of intracellular T. cruzi replication, confirmation, NIH3T3 host cells, beta-gal luminescence (AID 2044); assay type: functional, cell-based;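 further: intracellular parasites grown in NIH/3T3 mouse fibroblasts as host cells; luminescent beta-galactosidase reporter signal from transgenic T. cruzi replicating inside host cells; inhibitors lower the luminescence signal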
[13] = target: T6, Mu-type opioid receptor (Homo sapiens, UniProt P35372); experiment: HTS Image-Based Screen for Agonists of the MOR Receptor. [Related pubchem assays (depositor defined):AID1777, AID1785, AID1786, AID2133]; assay type: functional
T6 sequence (P35372 whole entry): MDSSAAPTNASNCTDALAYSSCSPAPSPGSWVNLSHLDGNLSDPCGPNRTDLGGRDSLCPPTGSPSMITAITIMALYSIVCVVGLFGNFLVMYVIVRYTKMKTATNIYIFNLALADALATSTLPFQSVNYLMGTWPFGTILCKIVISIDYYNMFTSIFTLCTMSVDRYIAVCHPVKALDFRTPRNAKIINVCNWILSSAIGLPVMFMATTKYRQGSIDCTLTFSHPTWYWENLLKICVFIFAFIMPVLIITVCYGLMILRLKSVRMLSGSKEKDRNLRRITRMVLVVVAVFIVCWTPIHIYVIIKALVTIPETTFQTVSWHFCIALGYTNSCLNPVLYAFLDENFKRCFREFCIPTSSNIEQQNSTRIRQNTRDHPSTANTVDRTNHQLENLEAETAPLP

[14] = target: Beta-galactosidase (Escherichia coli, UniProt Q8VNN2); assay type: functional
Sequence of Beta-galactosidase (Q8VNN2 whole entry): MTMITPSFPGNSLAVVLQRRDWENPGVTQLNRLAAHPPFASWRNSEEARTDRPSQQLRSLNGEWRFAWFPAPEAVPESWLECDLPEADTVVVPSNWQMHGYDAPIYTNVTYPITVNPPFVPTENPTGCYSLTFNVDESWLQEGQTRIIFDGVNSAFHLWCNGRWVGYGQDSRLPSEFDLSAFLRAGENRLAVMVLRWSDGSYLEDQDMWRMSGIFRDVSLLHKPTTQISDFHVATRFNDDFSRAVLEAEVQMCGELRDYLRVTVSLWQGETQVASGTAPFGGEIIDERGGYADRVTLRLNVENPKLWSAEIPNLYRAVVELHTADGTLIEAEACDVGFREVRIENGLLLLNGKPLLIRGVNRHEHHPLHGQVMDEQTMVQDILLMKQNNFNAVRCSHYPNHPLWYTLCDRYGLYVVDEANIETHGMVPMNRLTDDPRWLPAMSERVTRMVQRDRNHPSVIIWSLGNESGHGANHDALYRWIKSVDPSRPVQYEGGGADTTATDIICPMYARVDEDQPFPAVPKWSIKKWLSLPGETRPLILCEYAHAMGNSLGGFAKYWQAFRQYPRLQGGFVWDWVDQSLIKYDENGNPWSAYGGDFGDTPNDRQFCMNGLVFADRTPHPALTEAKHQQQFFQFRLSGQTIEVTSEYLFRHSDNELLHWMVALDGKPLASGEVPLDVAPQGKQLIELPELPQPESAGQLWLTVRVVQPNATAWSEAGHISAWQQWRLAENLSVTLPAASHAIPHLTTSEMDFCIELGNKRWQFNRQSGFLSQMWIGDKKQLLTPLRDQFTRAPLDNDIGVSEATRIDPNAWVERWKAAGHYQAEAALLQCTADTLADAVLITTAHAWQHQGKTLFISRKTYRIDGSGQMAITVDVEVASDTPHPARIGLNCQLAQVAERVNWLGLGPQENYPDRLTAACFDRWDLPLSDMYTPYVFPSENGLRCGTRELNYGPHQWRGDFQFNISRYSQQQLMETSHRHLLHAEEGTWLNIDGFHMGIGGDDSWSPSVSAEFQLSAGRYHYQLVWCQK

[15] = MC4R antagonists, dose response, counter-screen for LGR2 antagonist project, cell-based, plate reader, cherry pick (AID 743444); assay type: functional;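 further: transfected HEK 293 cells stimulated with alpha-MSH peptide; potency of inhibitors of the alpha-MSH evoked signal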
[16] = target: T5, Delta-type opioid receptor; experiment: HTS Image-Based Screen for Agonists of the DOR Receptor. [Related pubchem assays (depositor defined):AID1777, AID1786, AID2133]; assay type: functional
[17] = LGR2 antagonists, dose response, cell-based, HEK293, CRE-luciferase reporter, cherry pick, set 2 (AID 743343); assay type: functional;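 further: transfected cells were stimulated with diluted bursicon conditioned medium after compound addition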
[18] = A549 cell cytotoxicity, dose response, cytotoxicity control, plate reader, cherry-pick, antagonist series (AID 743412); assay type: functional, cell-based
[19] = cytotoxicity toward NIH3T3 fibroblasts, dose response, counter-screen, cell-based, ATP luminescence, mouse fibroblasts (AID 2010); assay type: functional;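 further: cells exposed to compound for about 90 hours before reading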
[20] = HEK293 cell cytotoxicity, dose response, cytotoxicity control, plate reader, cherry-picked samples (AID 743446); assay type: functional, cell-based
[21] = inhibitors of firefly luciferase expression or activity, dose response, H4 neuroglioma cells, luminescence (AID 1990); assay type: functional, cell-based
[22] = target: T4, Sphingosine 1-phosphate receptor 4; experiment: S1P4 receptor antagonists, human, late-stage follow-up, cell-based, fluorescence, synthesized analogues (AID 2346); assay type: functional
[23] = target: Sphingosine 1-phosphate receptor 5 (Homo sapiens, UniProt Q9H228); experiment: Late stage counterscreen assay for S1P4 antagonists: Fluorescence dose response cell-based screening assay for antagonists of the Sphingosine 1-Phosphate Receptor 5 (S1P5). [Related pubchem assays (depositor defined):AID1510, AID1524, AID1692, AID1853, AID2332, AID489009, AID489017]; assay type: functional
[24] = target: Sphingosine 1-phosphate receptor 2 (Homo sapiens, UniProt O95136); experiment: Late stage counterscreen assay for S1P4 antagonists: Fluorescence dose response cell-based screening assay for antagonists of the Sphingosine 1-Phosphate Receptor 2 (S1P2). [Related pubchem assays (depositor defined):AID1510, AID1524, AID1692, AID1853, AID2332, AID489009, AID489017]; assay type: functional
Sequence of Sphingosine 1-phosphate receptor 2 (O95136 whole entry): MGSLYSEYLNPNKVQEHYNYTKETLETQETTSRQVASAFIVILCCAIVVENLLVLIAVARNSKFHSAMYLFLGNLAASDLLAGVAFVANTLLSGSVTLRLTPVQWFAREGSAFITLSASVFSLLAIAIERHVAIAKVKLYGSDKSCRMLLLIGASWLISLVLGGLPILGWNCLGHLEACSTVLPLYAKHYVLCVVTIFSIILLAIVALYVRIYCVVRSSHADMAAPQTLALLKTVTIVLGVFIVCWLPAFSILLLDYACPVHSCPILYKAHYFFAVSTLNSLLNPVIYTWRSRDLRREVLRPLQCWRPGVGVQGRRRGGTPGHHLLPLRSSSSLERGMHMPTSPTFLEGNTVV

[25] = target: Sphingosine 1-phosphate receptor 3 (Homo sapiens, UniProt Q99500); experiment: Late stage counterscreen assay for S1P4 antagonists: Fluorescence dose response cell-based screening assay for antagonists of the Sphingosine 1-Phosphate Receptor 3 (S1P3). [Related pubchem assays (depositor defined):AID1510, AID1524, AID1692, AID1853, AID2332, AID489009, AID489017]; assay type: functional
Sequence of Sphingosine 1-phosphate receptor 3 (Q99500 whole entry): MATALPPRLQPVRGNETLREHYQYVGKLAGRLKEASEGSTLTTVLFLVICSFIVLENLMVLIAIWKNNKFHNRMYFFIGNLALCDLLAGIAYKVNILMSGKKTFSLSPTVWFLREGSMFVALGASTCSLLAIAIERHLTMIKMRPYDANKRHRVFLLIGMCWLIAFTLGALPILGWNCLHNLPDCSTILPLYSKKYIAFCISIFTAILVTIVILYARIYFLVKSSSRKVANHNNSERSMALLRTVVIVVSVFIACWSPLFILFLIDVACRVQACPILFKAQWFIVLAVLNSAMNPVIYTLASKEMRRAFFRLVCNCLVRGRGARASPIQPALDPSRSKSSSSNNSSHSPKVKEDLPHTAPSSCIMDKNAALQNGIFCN

[26] = target: T1, Sphingosine 1-phosphate receptor 1; experiment: Late stage counterscreen assay for S1P4 antagonists: Fluorescence dose response cell-based screening assay for antagonists of the Sphingosine 1-Phosphate Receptor 1 (S1P1). [Related pubchem assays (depositor defined):AID1510, AID1524, AID1692, AID1853, AID2332, AID489009, AID489017]; assay type: functional
[27] = target: T6, Mu-type opioid receptor; experiment: SAR Analysis of Agonists of the MOR Receptor using an Image-Based Assay - Set 3. [Related pubchem assays (depositor defined):AID1777, AID1785, AID1786, AID1966, AID2133, AID2136, AID2284, AID2285, AID2352]; assay type: functional
[28] = target: T6, Mu-type opioid receptor; experiment: SAR Analysis of Agonists of the MOR Receptor using an Image-Based Assay - Set 2. [Related pubchem assays (depositor defined):AID1777, AID1785, AID1786, AID1966, AID2133, AID2136, AID2284, AID2285, AID2352]; assay type: functional
[29] = target: T5, Delta-type opioid receptor; experiment: SAR Analysis of Agonists of the DOR Receptor using an Image-Based Assay - Set 2. [Related pubchem assays (depositor defined):AID1777, AID1785, AID1786, AID1966, AID2133, AID2136, AID2284, AID2285, AID2370]; assay type: functional
[30] = target: T5, Delta-type opioid receptor; experiment: SAR Analysis of Antagonists of the DOR Receptor using an Image-Based Assay - Set 2. [Related pubchem assays (depositor defined):AID1777, AID1785, AID1786, AID1966, AID2133, AID2136, AID2284, AID2285, AID2357]; assay type: functional
[31] = target: T2, Kappa-type opioid receptor; experiment: SAR analysis of Antagonists of the Kappa Opioid Receptor (KOR) using an Image-Based Assay - Set 2. [Related pubchem assays (depositor defined):AID1777, AID1785, AID1786, AID1966, AID2133, AID2136, AID2284, AID2285, AID2348]; assay type: functional
[32] = target: T6, Mu-type opioid receptor; experiment: SAR Analysis of Antagonists of the MOR Receptor using an Image-Based Assay - Set 2. [Related pubchem assays (depositor defined):AID1777, AID1785, AID1786, AID1966, AID2133, AID2136, AID2284, AID2285, AID2420]; assay type: functional
[33] = target: T2, Kappa-type opioid receptor; experiment: KOR agonist analogs, arrestin-GFP redistribution, SAR follow-up, imaging, image-based, set 3 (AID 488833); assay type: functional
[34] = target: T2, Kappa-type opioid receptor; experiment: SAR analysis of small molecule agonists of the kappa opioid receptor via a luminescent beta-arrestin assay - Set 3. [Related pubchem assays (depositor defined):AID1777, AID1785, AID1786, AID1966, AID2133, AID2136, AID2284, AID2500]; assay type: functional
[35] = target: T5, Delta-type opioid receptor; experiment: SAR Analysis of Agonists of the DOR Receptor using an Image-Based Assay - Set 3. [Related pubchem assays (depositor defined):AID1777, AID1786]; assay type: functional
[36] = target: Nuclear receptor ROR-alpha (Homo sapiens, UniProt P35398); experiment: ROR modulator nuclear receptor reporter panel, late-stage follow-up, ROR modulator project, cell-based, luciferase reporter, panel member RORA (AID 2117)
Sequence of Nuclear receptor ROR-alpha (P35398 whole entry): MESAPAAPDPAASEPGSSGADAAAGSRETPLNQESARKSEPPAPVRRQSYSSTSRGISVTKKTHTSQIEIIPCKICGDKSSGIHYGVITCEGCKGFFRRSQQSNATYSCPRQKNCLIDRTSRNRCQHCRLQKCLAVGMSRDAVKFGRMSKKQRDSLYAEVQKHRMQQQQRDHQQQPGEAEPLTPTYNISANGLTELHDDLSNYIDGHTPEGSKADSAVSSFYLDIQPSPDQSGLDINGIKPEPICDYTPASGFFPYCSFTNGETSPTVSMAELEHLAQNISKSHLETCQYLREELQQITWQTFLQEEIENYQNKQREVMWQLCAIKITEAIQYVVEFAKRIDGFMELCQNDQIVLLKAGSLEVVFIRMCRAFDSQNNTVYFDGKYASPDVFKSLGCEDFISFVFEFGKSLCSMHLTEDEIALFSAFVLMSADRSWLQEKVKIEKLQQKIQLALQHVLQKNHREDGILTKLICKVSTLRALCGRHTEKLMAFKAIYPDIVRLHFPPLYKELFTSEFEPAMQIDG

[37] = target: Nuclear receptor ROR-gamma (Homo sapiens, UniProt P51449); experiment: ROR modulator nuclear receptor reporter panel, late-stage follow-up, ROR modulator project, cell-based, luciferase reporter, panel member RORG (AID 2117)
Sequence of Nuclear receptor ROR-gamma (P51449 whole entry): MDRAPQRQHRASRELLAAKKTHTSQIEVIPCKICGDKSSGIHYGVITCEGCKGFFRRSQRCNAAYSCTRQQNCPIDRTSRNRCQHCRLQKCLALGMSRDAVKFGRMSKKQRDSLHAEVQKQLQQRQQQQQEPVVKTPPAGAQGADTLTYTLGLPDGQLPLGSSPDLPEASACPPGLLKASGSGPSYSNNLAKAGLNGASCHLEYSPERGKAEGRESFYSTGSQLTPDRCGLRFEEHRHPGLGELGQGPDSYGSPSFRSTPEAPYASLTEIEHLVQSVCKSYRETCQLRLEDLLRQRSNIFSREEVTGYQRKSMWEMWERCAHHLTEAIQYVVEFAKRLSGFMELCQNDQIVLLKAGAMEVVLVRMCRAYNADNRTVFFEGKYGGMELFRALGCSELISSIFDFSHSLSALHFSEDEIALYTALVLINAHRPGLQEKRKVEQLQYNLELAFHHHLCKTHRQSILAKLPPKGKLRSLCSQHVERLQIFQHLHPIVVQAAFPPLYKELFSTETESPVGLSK

[38] = target: Exodeoxyribonuclease V (Escherichia coli (strain K12), UniProt P04993+P07648+P08394); experiment: E. coli RecBCD inhibitors, dose response, counter-screen for AddAB inhibitor project, absorbance, V66 E. coli, mutant T4 phage (AID 492957); assay type: functional, cell-based, Escherichia coli str. K-12 substr. MG1655
[39] = target: G-protein coupled receptor 55 (Homo sapiens, UniProt Q9Y2T6); experiment: GPR55 antagonists blocking LPI-driven arrestin recruitment, primary screen, imaging, U2OS, beta-arrestin-GFP, LPI agonist (AID 2013); assay type: functional;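 further: antagonist potency measured as reduced agonist-driven arrestin aggregation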
Sequence of G-protein coupled receptor 55 (Q9Y2T6 whole entry): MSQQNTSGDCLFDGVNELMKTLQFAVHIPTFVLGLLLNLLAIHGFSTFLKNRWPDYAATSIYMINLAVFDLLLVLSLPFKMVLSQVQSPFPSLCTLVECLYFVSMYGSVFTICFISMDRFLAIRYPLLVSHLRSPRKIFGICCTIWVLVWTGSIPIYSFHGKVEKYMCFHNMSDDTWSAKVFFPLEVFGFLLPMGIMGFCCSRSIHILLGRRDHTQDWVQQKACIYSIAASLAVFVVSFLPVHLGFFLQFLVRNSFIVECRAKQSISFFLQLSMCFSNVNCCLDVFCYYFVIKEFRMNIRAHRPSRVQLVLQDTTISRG

[40] = Counterscreen for AddAB inhibitors: absorbance-based bacterial cell-based high throughput dose response assay for inhibitors of bacterial viability. [Related pubchem assays (depositor defined):AID435030, AID449728, AID449731, AID488942, AID488955, AID488956]; assay type: functional

T2 sequence (P41145 whole entry): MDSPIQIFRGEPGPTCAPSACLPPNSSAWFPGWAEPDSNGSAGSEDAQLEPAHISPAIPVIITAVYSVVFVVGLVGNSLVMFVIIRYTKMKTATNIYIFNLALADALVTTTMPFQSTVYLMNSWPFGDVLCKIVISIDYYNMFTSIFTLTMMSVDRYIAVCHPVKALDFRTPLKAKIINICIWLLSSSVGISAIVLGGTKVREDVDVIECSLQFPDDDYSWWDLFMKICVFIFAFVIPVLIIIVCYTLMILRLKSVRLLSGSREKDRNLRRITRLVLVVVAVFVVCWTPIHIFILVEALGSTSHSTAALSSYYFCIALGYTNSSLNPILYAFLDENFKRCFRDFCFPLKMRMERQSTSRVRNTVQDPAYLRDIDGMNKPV
T1 sequence (P21453 whole entry): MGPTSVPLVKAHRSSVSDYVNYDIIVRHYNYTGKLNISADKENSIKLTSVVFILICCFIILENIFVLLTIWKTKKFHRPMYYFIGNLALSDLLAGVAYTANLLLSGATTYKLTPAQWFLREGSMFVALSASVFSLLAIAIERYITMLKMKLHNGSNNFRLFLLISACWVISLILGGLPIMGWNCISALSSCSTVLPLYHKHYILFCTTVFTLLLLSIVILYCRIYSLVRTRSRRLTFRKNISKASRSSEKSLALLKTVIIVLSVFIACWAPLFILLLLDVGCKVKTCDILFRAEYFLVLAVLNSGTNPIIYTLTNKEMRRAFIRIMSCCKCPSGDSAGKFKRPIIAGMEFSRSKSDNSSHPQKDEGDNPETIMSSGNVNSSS

Compound: O=C(Cn1ncc(Cl)c(Cl)c1=O)N1CCc2ccccc21
- IC50 [1]: 5.51 µM (active)
- IC50 [2]: 2.85 µM
- AC50 [3]: > 35 µM (active)
- AC50 [4]: 16.3 µM (active)
- AC50 [5]: > 35 µM (active)
- AC50 [6]: 6.1 µM (active)
- IC50 [7]: 1.64 µM (active)
- EC50 [8]: > 120 µM (not active)
- IC50 [9]: 14.7 µM (inactive)
- IC50 [10]: 5.51 µM (active)
- EC50 [11]: 7.57 µM (active)
- EC50 [12]: 2.46 µM (active)
- EC50 [13]: > 32 µM (inactive)
- EC50 [14]: > 31.5 µM (inactive)
- AC50 [15]: 8.77 µM (active)
- EC50 [16]: > 32 µM (inactive)
- AC50 [17]: 7.11 µM (active)
- AC50 [18]: 7.68 µM (active)
- EC50 [19]: 4.51 µM (active)
- AC50 [20]: 4.3 µM (active)
- EC50 [21]: 8.12 µM (active)

Compound: Cc1ccc(NC(=O)c2ccc(-c3cc(Cl)ccc3Cl)o2)c(C)c1
- IC50 [22]: 0.182 µM (active)
- IC50 [23]: > 25 µM (inactive)
- IC50 [24]: > 25 µM (inactive)
- IC50 [25]: > 25 µM (inactive)
- IC50 [26]: > 25 µM (inactive)

Compound: Clc1ccc(CSc2nnc(-c3ccccn3)n2Cc2cccs2)cc1Cl
- EC50 [27]: > 32 µM (inactive)
- EC50 [28]: > 32 µM (inactive)
- EC50 [29]: > 32 µM (inactive)
- IC50 [30]: > 32 µM (inactive)
- IC50 [31]: > 32 µM (inactive)
- IC50 [32]: > 32 µM (inactive)
- EC50 [33]: 0.349 µM (active)
- EC50 [34]: 0.454 µM (active)
- EC50 [35]: > 64 µM (inactive)

Compound: CC(C)(C)c1ccc(S(=O)(=O)Nc2ccc(C(O)(C(F)(F)F)C(F)(F)F)cc2)cc1
- IC50 [36]: 2.47 µM (active)
- IC50 [37]: > 20 µM (inactive)

Compound: O=[N+]([O-])c1c(O)oc2ccccc2/c1=N\C(c1ccccc1)c1ccccc1
- IC50 [38]: > 119 µM (inactive)
- IC50 [39]: 2.79 µM (active)
- IC50 [40]: > 119 µM (inactive)
